Assay results from patent publication US12583820B2, “Broad spectrum antivirals against coronavirus” (priority 2020, dated 2026).
Like-named read-outs stand apart in the source and are kept apart here.

Experiments:
[1] = Nonspecific cytotoxic effects (CC50), CytoTox 96 kit
3CLpro of MERS-CoV = 3CLpro of MERS-CoV (Middle East respiratory syndrome-related coronavirus, UniProt K9N7C7); test: biochemical; type: biochemical
3CLpro of SARS-CoV-2 = target: T1, 3CLpro of SARS-CoV-2 (Severe acute respiratory syndrome coronavirus 2, UniProt P0DTD1); test: biochemical; type: biochemical
T1 construct: The codon-optimized cDNA of full length of 3CLpro of SARS-CoV-2; 6xHis (N); made in house; pET-28a(+) vector (points to E. coli, my inference)

[2] = test system: NV in the replicon harboring cells (HG23 cells); test: microbe, parasite or virus in culture; type: cell-based, norovirus (NV); conditions: read-out: EC50 (μM) ± SD

Sequence of 3CLpro of MERS-CoV (K9N7C7 3248-3553 limits assumed): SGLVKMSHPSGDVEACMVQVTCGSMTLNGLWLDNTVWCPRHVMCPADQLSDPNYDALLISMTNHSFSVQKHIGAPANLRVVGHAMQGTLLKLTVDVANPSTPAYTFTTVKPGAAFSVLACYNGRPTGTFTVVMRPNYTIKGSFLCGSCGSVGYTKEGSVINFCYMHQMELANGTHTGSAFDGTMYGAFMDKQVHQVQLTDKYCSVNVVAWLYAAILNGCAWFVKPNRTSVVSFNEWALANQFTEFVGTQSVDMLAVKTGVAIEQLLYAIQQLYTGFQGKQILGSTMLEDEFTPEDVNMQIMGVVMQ

Row | SMILES | CC50 at 72 h [1] [nM] | IC50 (3CLpro of MERS-CoV) [nM] | IC50 (3CLpro of SARS-CoV-2) [nM] | also measured
1 | CC(C)C[C@H](NC(=O)OCCCC1CCCCC1)C(=O)N[C@@H](C[C@@H]1CCNC1=O)C(O)S(=O)(=O)O (stereo partly drawn) [Compound 7f (Scheme 1), sodium (2S)-2-((S)-2-(((3-cyclohexylpropoxy)carbonyl)amino)-4-methylpentanamido)-1-hydroxy-3-((S)-2-oxopyrrolidin-3-yl)propane-1-sulfonate] | > 100000 | 640 |  | 
2 | CCCC(OC(=O)N[C@@H](CC(C)C)C(=O)N[C@@H](C[C@@H]1CCNC1=O)C(O)S(=O)(=O)O)c1ccccc1 (mixture of isomers) [Compound 23c, Sodium(2S)-1-hydroxy-2-((2S)-4-methyl-2-(((1-phenylbutoxy)carbonyl)amino)pentanamido)-3-((S)-2-oxopyrrolidin-3-yl)propane-1-sulfonate] | > 100000 |  |  | IC50 (3CLpro of MERS-CoV; read-out: IC50): 130 nM
3 | CC(C)C[C@H](NC(=O)OC(C)C1CCC(F)(F)CC1)C(=O)N[C@@H](C[C@@H]1CCNC1=O)C(O)S(=O)(=O)O (stereo partly drawn) [Compound 12c, Sodium (2S)-2-((2S)-2-(((1-(4,4-difluorocyclohexyl)ethoxy)carbonyl)amino)-4-methylpentan amido)-1-hydroxy-3-((S)-2-oxopyrrolidin-3-yl)propane-1-sulfonate] | > 100000 | 120 | 200 | 
4 | CC(C)C[C@H](NC(=O)OCc1c(F)c(F)c(F)c(F)c1F)C(=O)N[C@@H](CC1CCNC1=O)C(O)S(=O)(=O)O (stereo partly drawn) [Compound 21c, Sodium (2S)-1-hydroxy-2-((S)-4-methyl-2-((((perfluorophenyl)methoxy)carbonyl)amino)pentanamido)-3-(2-oxopyrrolidin-3-yl) propane-1-sulfonate] | > 100000 | 70 |  | 
5 | CCCCCC(=O)OC([C@H](C[C@@H]1CCNC1=O)NC(=O)[C@H](CC1CCCCC1)NC(=O)OCC(C)(C)Cc1cccc(Cl)c1)S(=O)(=O)O (stereo partly shown) [Compound 7l] |  |  |  | EC50 [2]: 0.08 ± 0.02 µM; CC50 (HG23 cells): 20700 ± 4030 nM
6 | CC(C)C[C@H](NC(=O)OCC(C)(C)Cc1cccc(Cl)c1)C(=O)N[C@H](C=O)C[C@@H]1CCNC1=O [Compound 5o] |  |  |  | EC50 [2]: 0.14 ± 0.04 µM; CC50 (HG23 cells): > 100000 nM
7 | CC(C)C[C@H](NC(=O)OC(C)(C)C1CCC(F)(F)CC1)C(=O)N[C@H](C=O)C[C@@H]1CCNC1=O [Compound 13b, 2-(4,4-Difluorocyclohexyl)propan-2-yl ((S)-4-methyl-1-oxo-1-(((S)-1-oxo-3-((S)-2-oxopyrrolidin-3-yl)propan-2-yl)amino)pentan-2-yl)carbamate] | > 100000 |  | 800 | 
8 | CCCC1CCC(COC(=O)NC(CC(C)C)C(=O)NC(CC2CCNC2=O)C(O)S(=O)(=O)O)CC1 [Compound 8c, Sodium (2S)-1-hydroxy-2-((S)-4-methyl-2-(((((1r,4R)-4-propylcyclohexyl)methoxy)carbonyl)amino)pentanamido)-3-(2-oxopyrrolidin-3-yl) propane-1-sulfonate] | > 100000 | 110 | 210 | 
9 | O=C(N[C@@H](CC1CCCCC1)C(=O)N[C@@H](C[C@@H]1CCNC1=O)C(O)S(=O)(=O)O)OC1CCC(F)(F)CC1 (stereo partly drawn) [Compound 7i (Scheme 1), sodium (2S)-2-((S)-3-cyclohexyl-2-((((4,4-difluorocyclohexyl)oxy)carbonyl)amino)propan-amido)-1-hydroxy-3-((S)-2-oxopyrrolidin-3-yl)propane-1-sulfonate] | > 100000 | > 50000 |  | 
10 | CC(C)C[C@H](NC(=O)OC1CCC(C)(C)CC1)C(=O)N[C@@H](C[C@@H]1CCNC1=O)C(O)S(=O)(=O)O (stereo partly drawn) [Compound 1c, Sodium (2S)-2-((S)-2-((((4,4-dimethylcyclohexyl)oxy)carbonyl)amino)-4-methylpentan amido)-1-hydroxy-3-((S)-2-oxopyrrolidin-3-yl)propane-1-sulfonate] | > 100000 | 90 |  | IC50 (3CLpro of SARS-CoV-2; read-out: IC50): 240 nM
11 | CC(C)C[C@H](NC(=O)O[C@H]1CC[C@H](C(C)C)CC1)C(=O)N[C@H](C=O)C[C@@H]1CCNC1=O [Compound 2b, (1r,4S)-4-isopropylcyclohexyl ((S)-4-methyl-1-oxo-1-(((S)-1-oxo-3-((S)-2-oxopyrrolidin-3-yl)propan-2-yl)amino)pentan-2-yl)carbamate] | > 100000 |  | 250 | 
12 | O=C[C@H](C[C@@H]1CCNC1=O)NC(=O)[C@H](CC1CCCCC1)NC(=O)OCCCc1cccc(Cl)c1 [Compound 5j (Example 5)] |  |  |  | EC50 [2]: 0.08 ± 0.01 µM; CC50 (HG23 cells): 30300 ± 2830 nM
13 | CC(C)CC(NC(=O)OC1CCC(C(C)C)CC1)C(=O)NC(CC1CCNC1=O)C(O)S(=O)(=O)O [Compound 2c, Sodium (2S)-1-hydroxy-2-((S)-2-(((((1r,4S)-4-isopropylcyclohexyl)oxy)carbonyl)amino)-4-methylpentanamido)-3-((S)-2-oxopyrrolidin-3-yl)propane-1-sulfonate] | > 100000 |  | 230 | 
14 | CCCCC(OC(=O)N[C@@H](CC(C)C)C(=O)N[C@@H](C[C@@H]1CCNC1=O)C(O)S(=O)(=O)O)C1CCC(F)(F)CC1 (stereo partly drawn) [Compound 16c, Sodium (2S)-2-((2S)-2-((((1-(4,4-difluorocyclohexyl)pentyl)oxy)carbonyl)amino)-4-methylpentanamido)-1-hydroxy-3-((S)-2-oxopyrrolidin-3-yl)propane-1-sulfonate] | > 100000 |  | 250 | 
15 | CC(C)C[C@H](NC(=O)OCc1ccccc1F)C(=O)N[C@H](C=O)C[C@@H]1CCNC1=O [Compound 17b, 2-Fluorobenzyl ((S)-4-methyl-1-oxo-1-(((S)-1-oxo-3-((S)-2-oxopyrrolidin-3-yl)propan-2-yl)amino)pentan-2-yl)carbamate] | > 100000 |  | 380 | 
16 | CC(C)C[C@H](NC(=O)OC(Cc1ccccc1)C1CCC(F)(F)CC1)C(=O)N[C@@H](C[C@@H]1CCNC1=O)C(O)S(=O)(=O)O (stereo partly drawn) [Compound 14c, Sodium (2S)-2-((2S)-2-(((1-(4,4-difluorocyclohexyl)-2-phenylethoxy)carbonyl)amino)-4-methylpentanamido)-1-hydroxy-3-((S)-2-oxopyrrolidin-3-yl)propane-1-sulfonate] | > 100000 | 160 | 220 | 
17 | CCCCC1CCC(OC(=O)NC(CC(C)C)C(=O)NC(CC2CCNC2=O)C(O)S(=O)(=O)O)CC1 [Compound 4c, Sodium (2S)-2-((S)-2-(((((1s,4S)-4-butylcyclohexyl)oxy)carbonyl)amino)-4-methylpentan amido)-1-hydroxy-3-((S)-2-oxopyrrolidin-3-yl)propane-1-sulfonate] | > 100000 | 150 |  | 
18 | [2H]C([2H])(OC(=O)N[C@@H](CC(C)C)C(=O)N[C@H](C=O)CC1CCNC1=O)c1c(F)c(F)c(F)c(F)c1F (stereo partly drawn) [Compound 22b, (Perfluorophenyl)methyl-d2 ((2S)-4-methyl-1-oxo-1-(((2S)-1-oxo-3-(2-oxopyrrolidin-3-yl)propan-2-yl)amino)pentan-2-yl) carbamate] | > 100000 |  | 630 | 
19 | CC(C)C[C@H](NC(=O)OCc1cccc(F)c1)C(=O)N[C@@H](C[C@@H]1CCNC1=O)C(O)S(=O)(=O)O (stereo partly drawn) [Compound 18c, Sodium (2S)-2-((S)-2-((((3-fluorobenzyl)oxy)carbonyl)amino)-4-methylpentanamido)-1-hydroxy-3-((S)-2-oxopyrrolidin-3-yl)propane-1-sulfonate] | > 100000 | 80 | 310 | 
